# Paper PMC4961418, “A Selective Irreversible Inhibitor of Furin Does Not Prevent Pseudomonas Aeruginosa Exotoxin A-Induced Airway Epithelial Cytotoxicity” (PLoS ONE, 2016)
# Peptide text beside a SMILES is read from it. * marks the point of attachment. Decanoyl = CCCCCCCCCC(=O)*; CH2Cl = ClC*
# Biological target: cathepsin B (Homo sapiens, UniProt P07858)
# Experiment: Cathepsin B activity assay
# Type: biochemical
# Details: cathepsin B, N = 3
# Protocol: Fig 3 Comparison of QUB-F1 and furin I versus cathepsin B. Cathepsin B activity was assessed in the presence or absence of various concentrations of QUB-F1 or furin I (N = 3). Data represent mean ± s.e.m.
structure (smiles),measurement,value
"CCCCCCCCCC(=O)N[C@@H](CCCNC(=N)N)C(=O)N[C@H](C(=O)N[C@@H](CCCCN)C(=O)N[C@@H](CCCNC(=N)N)C(=O)CCl)C(C)C [furin I, Decanoyl-RVKR-chloromethylketone (CMK), reference compound] (Decanoyl-RVKR-CH2Cl)",IC50,0.056 µM
